Source: PMC6193035, “Novel small molecules affecting cell membrane as potential therapeutics for avian pathogenic Escherichia coli” (Scientific Reports, 2018)
≈ marks a conversion by molar mass, not a printed value. Marks after values point to notes of the source that are not given here.

Legend:
[1] = system: intracellular APEC O1 in Caco-2 cells; assay: Intracellular survival assay; format: cell-based, Escherichia coli; conditions: for minimal effective concentration: Escherichia coli, O1, Caco-2, 6 h treatment, read-out: SMs intracellular APEC clearance concentration; for concentration at which the SM significantly (P < 0.01) reduced intracellular APEC (superscript of t-statistic): O1, Caco-2, 6 h
Description: (§1) Intracellular survival assay was conducted as described previously[28],[29] to determine the effect of cidal SMs on APEC survival in phagocytic (HD11, THP-1) and non-phagocytic (Caco-2) cells. Briefly, mid-logarithmic phase grown APEC O78, O1, and O2 were washed and adjusted to 1 × 10^7 CFU/mL in cell culture incomplete media (no FBS and antibiotics). One-hundred microlitres adjusted APEC suspension was added at multiplicity of infection (MOI) 10 to wells of 96-well cell culture plate containing cultured macrophage (HD11, THP-1) and epithelial cells (Caco-2) and incubated for 1 h and 3 h, respectively. […] The cells were then lysed with 100 µL of 0.1% Triton X-100 for 5 mins, serially diluted, and plated on LB agar plate to enumerate viable bacteria. The intracellular bacteria in SMs treated wells were compared with DMSO (1%) treated wells. Two independent experiments in duplicate wells for each concentration of SMs were conducted.

[2] = system: intracellular APEC O78 in THP-1 cells; assay: Intracellular survival assay; format: cell-based, Escherichia coli; conditions: for minimal effective concentration: Escherichia coli, O78, THP-1, 6 h treatment, read-out: SMs intracellular APEC clearance concentration; for intracellular APEC clearance concentration as multiple of MIC (superscript): O78, THP-1; for concentration at which the SM significantly (P < 0.01) reduced intracellular APEC (superscript of t-statistic): O78, THP-1, 6 h
Description: as §1

[3] = system: intracellular APEC O78 in HD11 cells; assay: Intracellular survival assay; format: cell-based, Escherichia coli; conditions: for minimal effective concentration: Escherichia coli, O78, HD11, 6 h treatment, read-out: SMs intracellular APEC clearance concentration; for intracellular APEC clearance concentration as multiple of MIC (superscript): O78, HD11; for concentration at which the SM significantly (P < 0.01) reduced intracellular APEC (superscript of t-statistic): O78, HD11, 6 h
Description: as §1

[4] = system: intracellular APEC O1 in HD11 cells; assay: Intracellular survival assay; format: cell-based, Escherichia coli; conditions: for minimal effective concentration: Escherichia coli, O1, HD11, 6 h treatment, read-out: SMs intracellular APEC clearance concentration; for concentration at which the SM significantly (P < 0.01) reduced intracellular APEC (superscript of t-statistic): O1, HD11, 6 h
Description: as §1

[5] = system: intracellular APEC O2 in THP-1 cells; assay: Intracellular survival assay; format: cell-based, Escherichia coli; conditions: for minimal effective concentration: Escherichia coli, O2, THP-1, 6 h treatment, read-out: SMs intracellular APEC clearance concentration; for concentration at which the SM significantly (P < 0.01) reduced intracellular APEC (superscript of t-statistic): O2, THP-1, 6 h
Description: as §1

[6] = system: intracellular APEC O78 in Caco-2 cells; assay: Intracellular survival assay; format: cell-based, Escherichia coli; conditions: for minimal effective concentration: Escherichia coli, O78, Caco-2, 6 h treatment, read-out: SMs intracellular APEC clearance concentration; for intracellular APEC clearance concentration as multiple of MIC (superscript): O78, Caco-2; for concentration at which the SM significantly (P < 0.01) reduced intracellular APEC (superscript of t-statistic): O78, Caco-2, 6 h
Description: as §1

[7] = system: intracellular APEC O1 in THP-1 cells; assay: Intracellular survival assay; format: cell-based, Escherichia coli; conditions: for minimal effective concentration: Escherichia coli, O1, THP-1, 6 h treatment, read-out: SMs intracellular APEC clearance concentration; for concentration at which the SM significantly (P < 0.01) reduced intracellular APEC (superscript of t-statistic): O1, THP-1, 6 h
Description: as §1

[8] = system: intracellular APEC O2 in HD11 cells; assay: Intracellular survival assay; format: cell-based, Escherichia coli; conditions: for minimal effective concentration: Escherichia coli, O2, HD11, 6 h treatment, read-out: SMs intracellular APEC clearance concentration; for intracellular APEC clearance concentration as multiple of MIC (superscript): O2, HD11; for concentration at which the SM significantly (P < 0.01) reduced intracellular APEC (superscript of t-statistic): O2, HD11, 6 h
Description: as §1

[9] = system: intracellular APEC O2 in Caco-2 cells; assay: Intracellular survival assay; format: cell-based, Escherichia coli; conditions: for minimal effective concentration: Escherichia coli, O2, Caco-2, 6 h treatment, read-out: SMs intracellular APEC clearance concentration; for concentration at which the SM significantly (P < 0.01) reduced intracellular APEC (superscript of t-statistic): O2, Caco-2, 6 h
Description: as §1

[10] = system: APEC O109; assay: MIC and MBC determination in M63 media; format: cell-based; conditions: Escherichia coli
[11] = system: APEC O78; assay: Loss of 260/280 nm absorbing materials assay; format: cell-based, Escherichia coli; conditions: 2X MBC, 1 h; for Absorbance 280 nm of treated supernatant: DMSO 2.58; for Absorbance 280 nm of treated supernatant / Absorbance 260 nm of treated supernatant: superscript a P < 0.05 vs DMSO; for Absorbance 260 nm of treated supernatant: DMSO 3.77
Description: (§2) Membrane permeability assays (crystal violet (CV) uptake and loss of 260/280 nm absorbing materials) were conducted as described previously. […] CV uptake was measured using the formula: (OD DMSO − OD SM/OD DMSO × 100). Two independent experiments in duplicates were conducted.

[12] = system: APEC O78; assay: Crystal violet (CV) uptake assay; format: cell-based, Escherichia coli; conditions: 2X MBC, 30 mins; P < 0.05, Student's t-test
Description: as §2

[13] = system: APEC O35; assay: MIC and MBC determination in M63 media; format: cell-based; conditions: Escherichia coli
[14] = system: APEC O78-53; assay: MIC and MBC determination in M63 media; format: cell-based; conditions: Escherichia coli; APEC O78-53, M63 media
Description: (§3) One microlitre SM of each concentration was transferred to each well of a 96-well plate containing 100 µL of the 0.05 OD600 adjusted APEC O78 culture in M63 media. Growth was monitored in Sunrise - Absorbance microplate reader as described above. MIC was indicated by lowest concentration of SM with non-elevated OD600 measurement. MBC was determined by absence of APEC growth on LB agar plate following subculture. […] Two independent experiments were conducted.

[15] = system: intracellular APEC O78, O2, and O1 in infected Caco-2, HD11, and THP1 cells; assay: Intracellular survival assay, statements over all serotypes and cells; format: cell-based, Escherichia coli; conditions: for minimal effective concentration: Escherichia coli, 6 h, O78, O2 and O1, Caco-2, HD11, THP-1, read-out: concentration clearing intracellular APEC
Description: as §1

[16] = system: APEC O78; assay: MIC and MBC determination in M63 media; format: cell-based, Escherichia coli; conditions: for MIC / MBC: Escherichia coli; for MBC: subculture on LB agar
Description: as §3

| SMILES | minimal effective concentration [1] [µM] | concentration at which the SM significantly (P < 0.01) reduced intracellular APEC (superscript of t-statistic) [1] | minimal effective concentration [2] [µM] | intracellular APEC clearance concentration as multiple of MIC (superscript) [2] | concentration at which the SM significantly (P < 0.01) reduced intracellular APEC (superscript of t-statistic) [2] | minimal effective concentration [3] [µM] | intracellular APEC clearance concentration as multiple of MIC (superscript) [3] | concentration at which the SM significantly (P < 0.01) reduced intracellular APEC (superscript of t-statistic) [3] | minimal effective concentration [4] [µM] | concentration at which the SM significantly (P < 0.01) reduced intracellular APEC (superscript of t-statistic) [4] | minimal effective concentration [5] [µM] | concentration at which the SM significantly (P < 0.01) reduced intracellular APEC (superscript of t-statistic) [5] | minimal effective concentration [6] [µM] | intracellular APEC clearance concentration as multiple of MIC (superscript) [6] | concentration at which the SM significantly (P < 0.01) reduced intracellular APEC (superscript of t-statistic) [6] | minimal effective concentration [7] [µM] | concentration at which the SM significantly (P < 0.01) reduced intracellular APEC (superscript of t-statistic) [7] | minimal effective concentration [8] [µM] | intracellular APEC clearance concentration as multiple of MIC (superscript) [8] | concentration at which the SM significantly (P < 0.01) reduced intracellular APEC (superscript of t-statistic) [8] | other results |
| --- | --- | --- | --- | --- | --- | --- | --- | --- | --- | --- | --- | --- | --- | --- | --- | --- | --- | --- | --- | --- | --- |
| COc1cc(CNCCc2ccc(C)cc2)ccc1OCC(O)CN1CCCC1 (stereo not shown) [SM3] | > 200 | c (2XMIC) | 100 | a (1X MIC) | a (0.5X MIC) | 100 | a (1X MIC) | a (0.5X MIC) | 200 | a (0.5X MIC) | 100 | a (0.5X MIC) | 100 | a (1X MIC) | a (0.5X MIC) | 200 | a (0.5X MIC) | 200 | b (2X MIC) | a (0.5X MIC) | intracellular APEC clearance concentration as multiple of MIC (superscript) ([7]; O1, THP-1): b (2X MIC); minimal effective concentration [9]: > 200 µM; concentration at which the SM significantly (P < 0.01) reduced intracellular APEC (superscript of t-statistic) [9]: b (1X MIC); MBC [10]: 200 µM (≈ 79.7 µg/mL); MIC [10]: 100 µM (≈ 39.9 µg/mL); 280 nm absorbing materials in supernatant compared with DMSO [11]: significantly (P < 0.05, Student’s t-test) increased; Absorbance 280 nm of treated supernatant [11]: 2.84^a; Absorbance 260 nm of treated supernatant [11]: 3.77; uptake of crystal violet compared with DMSO [12]: increased the uptake of crystal violet; MBC [13]: 200 µM (≈ 79.7 µg/mL); MIC [13]: 100 µM (≈ 39.9 µg/mL); MBC [14]: 200 µM (≈ 79.7 µg/mL); MIC [14]: 100 µM (≈ 39.9 µg/mL); minimal effective concentration [15]: ≥ 100 µM; MBC relative to MIC [16]: identical to MIC; MIC [16]: 100 µM (≈ 39.9 µg/mL); MBC [16]: 100 µM (≈ 39.9 µg/mL) |
| CC(=O)OC(C(Br)C(=O)c1ccc([N+](=O)[O-])cc1)C(Cl)(Cl)Cl (stereo not shown) [SM10] | 100 | b (1X MIC) | 100 | c (4X MIC) | b (1X MIC) | 50 | b (2X MIC) | c (2XMIC) | > 100 | b (1X MIC) | 50 | b (1X MIC) | 100 | c (4X MIC) | b (1X MIC) | > 100 | b (1X MIC) | 100 | c (4X MIC) | b (1X MIC) | intracellular APEC clearance concentration as multiple of MIC (superscript) ([1]; O1, Caco-2): c (4X MIC); minimal effective concentration [9]: 100 µM; intracellular APEC clearance concentration as multiple of MIC (superscript) ([9]; O2, Caco-2): c (4X MIC); concentration at which the SM significantly (P < 0.01) reduced intracellular APEC (superscript of t-statistic) [9]: b (1X MIC); MBC [10]: 50 µM (≈ 21.7 µg/mL); MIC [10]: 25 µM (≈ 10.8 µg/mL); 260 nm absorbing materials in supernatant compared with DMSO [11]: significantly (P < 0.05, Student’s t-test) increased; 280 nm absorbing materials in supernatant compared with DMSO [11]: significantly (P < 0.05, Student’s t-test) increased; Absorbance 280 nm of treated supernatant [11]: 2.73^a; Absorbance 260 nm of treated supernatant [11]: 3.98^a; uptake of crystal violet compared with DMSO [12]: increased the uptake of crystal violet; MBC [13]: 50 µM (≈ 21.7 µg/mL); MIC [13]: 25 µM (≈ 10.8 µg/mL); MBC [14]: 50 µM (≈ 21.7 µg/mL); MIC [14]: 25 µM (≈ 10.8 µg/mL); minimal effective concentration [15]: ≤ 100 µM; ranking in clearing intracellular APEC ([15]; all tested serotypes and cells): most effective SMs in clearing intracellular APEC serotypes in all tested cells; MIC [16]: 25 µM (≈ 10.8 µg/mL); MBC [16]: 50 µM (≈ 21.7 µg/mL) |
